Measurements as given in US20260285857A1, “BICYCLIC AND HETEROCYCLIC AMIDE COMPOUNDS” (priority 2024, published 2026).

These molecules were tested on immunoglobulin light chain protein WIL-FL T46L (assay: Differential scanning fluorimetry (thermal shift) assay). Conditions: Table A; temperature shift [Tm]compound-[Tm]vehicle; recombinant WIL-FL T46L.
Format: binding
For `CC[C@]1(c2ccccc2)CCN(c2cc(C)c3nc(C45CC(N)(CO4)C5)nn3c2)C1` [Compound 51], the DSF was “** (>0.5-1 °C =**)”.
With `C[C@]1(c2ccccc2)CCN(c2cc(CN)c3nc(C(=O)N4CC[C@@]5(CCN(c6cccc(C(=O)O)n6)C5)C4)nn3c2)C1` [Compound 345] the DSF was “***** (>2.5° C.=*****)”.
In the case of `Cc1cc(N2CC[C@](C)(c3ccccc3)C2)cn2nc(C34CC(C(N)=O)(CO3)C4C(N)=O)nc12` (stereo partly drawn) [Compound 45], the DSF is reported as “***** (>2.5° C.=*****)”.
`Cc1cc(N2CC[C@](C)(c3ccccc3)C2)cn2nc(C(=O)NC3CCC4(CCN(c5cccc(C(=O)O)n5)C4)C3)nc12` (stereo partly drawn) [Compound 245] was tested, and the DSF was “***** (>2.5° C.=*****)”.
`Cc1cc(N2CC[C@](C)(c3ccccc3)C2)cn2nc(C(=O)NCC3(O)CCOCC3)nc12` [Compound 116] was tested, and the DSF was “***** (>2.5° C.=*****)”.
`Cc1cc(N2CC[C@](C)(c3ccccc3)C2)cn2nc(C(=O)N3CC4(C(=O)O)CC3C4)nc12` [Compound 439] was tested, and the DSF was “***** (>2.5° C.=*****)”.
In the case of `Cc1cc(OC[C@H](C)c2ccccc2)cn2nc(C(=O)NC3CCC(C)(O)C3)nc12` (stereo partly drawn) [Compound 315], the DSF is reported as “**** (>1.5-2.5° C.=****)”.
For `Cc1cc(N2CC[C@](C)(c3ccccc3)C2)cn2nc(C(=O)NC3CN(c4cccc(C(=O)O)n4)CCC3(C)O)nc12` (stereo partly drawn) [Compound 230], the DSF was “***** (>2.5° C.=*****)”.
In the case of `Cc1nc(C2C3(N)COC2(c2nc4c(C)cc(N5CC[C@](C)(c6ccccc6)C5)cn4n2)C3)n[nH]1` (stereo partly drawn) [Compound 48], the DSF is reported as “***** (>2.5° C.=*****)”.
With `Cc1cc(N2CC[C@](C)(c3ccccc3)C2)cn2nc(C(=O)N3CC4(CCN(c5cccc(C(=O)O)n5)C4)C3)nc12` [Compound 240] the DSF was “***** (>2.5° C.=*****)”.
`Cc1cc(N2CCC(C)(c3cccc(F)c3)C2)cn2nc(C(=O)NC3CCOC3)nc12` (stereo not drawn) [Compound 383] was tested, and the DSF was “***** (>2.5° C.=*****)”.
In the case of `Cc1cc(N2CC[C@](C)(c3ccccc3)C2)cn2nc(C34CC(CO3)C4Cn3cnc(C(N)=O)n3)nc12` (stereo partly drawn) [Compound 90], the DSF is reported as “**** (>1.5-2.5° C.=****)”.
In the case of `Cc1noc(N2CCC(NC(=O)c3nc4c(C)cc(N5CC[C@](C)(c6ccccc6)C5)cn4n3)CC2)n1` [Compound 290], the DSF is reported as “***** (>2.5° C.=*****)”.
For `Cc1cc(OC[C@H](C)c2ccccc2)cn2nc(C34CC(N)(CO3)C4)nc12` [Compound 61], the DSF was “**** (>1.5-2.5° C.=****)”.
With `Cc1cc(N2CCC(C)(c3ccccc3Cl)C2)cn2nc(C(=O)N3CC[C@@]4(CCN(c5cccc(C(=O)O)n5)C4)C3)nc12` (stereo partly drawn) [Compound 417] the DSF was “***** (>2.5° C.=*****)”.
In the case of `Cc1cc(OC[C@H](C)c2ccccc2)cn2nc(C(=O)N3CCC4(CCN(c5cccc(C(=O)O)n5)C4)C3)nc12` (stereo partly drawn) [Compound 311], the DSF is reported as “***** (>2.5° C.=*****)”.
In the case of `Cc1cc(N2CC[C@](C)(c3ccccc3)C2)cn2nc(C(=O)N3CC4CC3CO4)nc12` (stereo partly drawn) [Compound 124], the DSF is reported as “***** (>2.5° C.=*****)”.
For `Cc1cc(N2CC[C@](C)(c3ccccc3)C2)cn2nc(C(=O)N3CCC4(CCN(c5ncn[nH]5)C4)C3)nc12` (stereo partly drawn) [Compound 236], the DSF was “***** (>2.5° C.=*****)”.
`COc1cc(N2CC[C@](C)(c3ccccc3)C2)cn2nc(C(=O)N3CC[C@@]4(CCN(c5cccc(C(=O)O)n5)C4)C3)nc12` [Compound 294] was tested, and the DSF was “***** (>2.5° C.=*****)”.
With `CCC1(c2ccccc2)CN(c2cc(C)c3nc(C(=O)NC)nn3c2)C1` [Compound 33, 6-(3-ethyl-3-phenyl-azetidin-1-yl)-N, 8-dimethyl-[1,2,4]triazolo[1,5-a]pyridine-2-carboxamide] the DSF was “***** (>2.5° C.=*****)”.
For `Cc1cc(N2CC[C@](C)(c3ccccc3)C2)cn2nc(C(=O)N3CCC4(CCN(c5nc(C(=O)O)n[nH]5)C4)C3)nc12` (stereo partly drawn) [Compound 235], the DSF was “***** (>2.5° C.=*****)”.
In the case of `Cc1cc(N2CC[C@](C)(c3ccccc3)C2)cn2nc(C(=O)NC3CC4(C3)CC(N3CC5C(C3)C5C(=O)O)C4)nc12` (stereo partly drawn) [Compound 379], the DSF is reported as “***** (>2.5° C.=*****)”.
`Cc1cc(N2CC[C@](C)(c3ccccc3)C2)cn2nc(C(=O)N(C)[C@H]3CCNC3)nc12` [Compound 103] was tested, and the DSF was “***** (>2.5° C.=*****)”.
For `Cc1cc(N2CC[C@](C)(c3ccccc3)C2)cn2nc(C(=O)N3CCC(N4CC5C(C4)C5C(=O)O)CC3)nc12` (stereo partly drawn) [Compound 366], the DSF was “***** (>2.5° C.=*****)”.
`COc1cccc([C@@]2(C)CCN(c3cc(C)c4nc(C(=O)N5CC[C@@]6(CCN(c7cccc(C(=O)O)n7)C6)C5)nn4c3)C2)c1` [Compound 409] was tested, and the DSF was “***** (>2.5° C.=*****)”.
For `Cc1cc(N2CC[C@](C)(c3ccccc3)C2)cn2nc(C(=O)N3CCC4NC(=O)CC43)nc12` (stereo partly drawn) [Compound 135], the DSF was “***** (>2.5° C.=*****)”.
For `Cc1cc(N2CC[C@](C)(c3ccccc3)C2)cn2nc(C(=O)N3CC4C3CCCN4c3cccc(C(=O)O)n3)nc12` (stereo partly drawn) [Compound 247], the DSF was “***** (>2.5° C.=*****)”.
`Cc1cc(N2CC[C@](C)(c3ccccc3)C2)cn2nc(C(=O)N3CCN(S(C)(=O)=O)CC3)nc12` [Compound 144] was tested, and the DSF was “***** (>2.5° C.=*****)”.

Same assay, conditions: Table B; temperature shift [Tm]compound-[Tm]vehicle; recombinant WIL-FL T46L
For `CCS(=O)(=O)NCC12COC(c3nc4c(C)cc(N5CC[C@](C)(c6ccccc6)C5)cn4n3)(C1)C2CO` (stereo partly drawn) [Compound 583, N-((5-(hydroxymethyl)-1-(8-methyl-6-((R)-3-methyl-3-phenylpyrrolidin-1-yl)-[1,2,4]triazolo[1,5-a]pyridin-2-yl)-2-oxabicyclo[2.1.1]hexan-4-yl)methyl)ethanesulfonamide], the DSF was “***** (>2.5° C.=*****)”.
In the case of `CCOC(=O)Nc1n[nH]c(C2C3COC2(c2nc4c(C)cc(N5CC[C@](C)(c6ccccc6)C5)cn4n2)C3)n1` (stereo partly drawn) [Compound 551], the DSF is reported as “***** (>2.5° C.=*****)”.
For `Cc1cc(N2CC[C@](C)(c3ccccc3)C2)cn2nc(C34CC(CO)(C3)C(C)(C)O4)nc12` [Compound 473, (R)-(3,3-dimethyl-1-(8-methyl-6-(3-methyl-3-phenylpyrrolidin-1-yl)-[1,2,4]triazolo[1,5-a]pyridin-2-yl)-2-oxabicyclo[2.1.1]hexan-4-yl)methanol], the DSF was “***** (>2.5° C.=*****)”.
For `Cc1cc(N2CC[C@](C)(c3ccccc3)C2)cn2nc(C(=O)N3CCC34CN(c3cccc(C(=O)O)n3)C4)nc12` [Compound 615], the DSF was “**** (>1.5-2.5° C.=****)”.
`Cc1n[nH]c([C@H]2[C@H]3CO[C@]2(c2nc4c(C)cc(N5CC[C@](C)(c6ccccc6)C5)cn4n2)C3)n1` [Compound 491, 8-methyl-6-[(3R)-3-methyl-3-phenyl-pyrrolidin-1-yl]-2-[(1R,4S,5R)-5-(3-methyl-1H-1,2,4-triazol-5-yl)-2-oxabicyclo[2.1.1]hexan-1-yl]-[1,2,4]triazolo[1,5-a]pyridine] was tested, and the DSF was “***** (>2.5° C.=*****)”.
For `Cc1cc(N2CC[C@](C)(c3ccccc3)C2)cn2nc(C34CC(CO3)C4NCC(C)(C)O)nc12` (stereo partly drawn) [Compound 528, 2-methyl-1-[[1-[8-methyl-6-[(3R)-3-methyl-3-phenyl-pyrrolidin-1-yl]-[1,2,4]triazolo[1,5-a]pyridin-2-yl]-2-oxabicyclo[2.1.1]hexan-5-yl]amino]propan-2-ol], the DSF was “***** (>2.5° C.=*****)”.
In the case of `Cc1cc(N2CC[C@](C)(c3ccccc3)C2)cn2nc(C(=O)N3CCc4c(nnn4-c4ccnc(C(=O)O)c4)C3)nc12` [Compound 639], the DSF is reported as “***** (>2.5° C.=*****)”.
`Cc1cc(N2CC[C@](C)(c3ccccc3)C2)cn2nc(C34CC(NC(=O)C5(C(=O)O)CCC5)(CO3)C4)nc12` [Compound 467] was tested, and the DSF was “***** (>2.5° C.=*****)”.
With `Cc1cc(N2CC[C@](C)(c3ccccc3)C2)cn2nc(C(=O)NC34COC(CN(c5cccc(C(=O)O)n5)C3)C4)nc12` (mixture of isomers) [Compound 690, 6-[1-[[8-methyl-6-[rac-(3R)-3-methyl-3-phenyl-pyrrolidin-1-yl]-[1,2,4]triazolo[1,5-a]pyridine-2-carbonyl]amino]-6-oxa-3-azabicyclo[3.2.1]octan-3-yl]pyridine-2-carboxylic acid] the DSF was “***** (>2.5° C.=*****)”.
For `Cc1cc(N2CC[C@](C)(c3ccccc3)C2)cn2nc(C34CC(CO3)C4c3nc(NC(=O)C4CC(C)(C(=O)O)C4)n[nH]3)nc12` (stereo partly drawn) [Compound 555], the DSF was “***** (>2.5° C.=*****)”.
`Cc1cc(N2CC[C@](C)(c3ccccc3)C2)cn2nc([C@@]34C[C@@H](CO3)[C@H]4N3CC4(CN(c5cccc(C(=O)O)n5)C4)NC3=O)nc12` [Compound 519] was tested, and the DSF was “***** (>2.5° C.=*****)”.
In the case of `Cc1cc(N2CC[C@](C)(c3ccccc3)C2)cn2nc(C(=O)N3CCC4(COCC(C(=O)O)O4)C3)nc12` (stereo partly drawn) [Compound 598], the DSF is reported as “***** (>2.5° C.=*****)”.
In the case of `Cc1cc(N2CC[C@](C)(c3ccccc3)C2)cn2nc(C(=O)NCC3CCN(c4cccc(C(=O)O)n4)CC3)nc12` [Compound 647], the DSF is reported as “***** (>2.5° C.=*****)”.
In the case of `COC1(CNC(=O)c2nc3c(C)cc(N4CC[C@](C)(c5ccccc5)C4)cn3n2)CN(c2cccc(C(=O)O)n2)C1` [Compound 612], the DSF is reported as “***** (>2.5° C.=*****)”.
`Cc1cc(N2CC[C@](C)(c3ccccc3)C2)cn2nc(C34CC(C(=O)O)(CO3)C4C(=O)O)nc12` (stereo partly drawn) [Compound 537, 1-(8-methyl-6-((R)-3-methyl-3-phenylpyrrolidin-1-yl)-[1,2,4]triazolo[1,5-a]pyridin-2-yl)-2-oxabicyclo[2.1.1]hexane-4,5-dicarboxylic acid] was tested, and the DSF was “**** (>1.5-2.5° C.=****)”.
In the case of `Cc1cc(N2CC[C@](C)(c3ccccc3)C2)cn2nc(C34CC(CO3)C4c3nc(NC(=O)C4CC(C(=O)O)C4)n[nH]3)nc12` (stereo partly drawn) [Compound 550], the DSF is reported as “***** (>2.5° C.=*****)”.
For `Cc1cc(N2CC[C@](C)(c3ccccc3)C2)cn2nc(C34CC(CO3)C4c3nc(NS(=O)(=O)CC(C)(C)C(=O)O)n[nH]3)nc12` (stereo partly drawn) [Compound 564], the DSF was “***** (>2.5° C.=*****)”.
For `Cc1cc(N2CC[C@](C)(c3ccccc3)C2)cn2nc(C(=O)NC[C@@H]3CCCN3c3cccc(C(=O)O)n3)nc12` [Compound 689], the DSF was “***** (>2.5° C.=*****)”.
`Cc1cnn(CC23COC(c4nc5c(C)cc(N6CC[C@](C)(c7ccccc7)C6)cn5n4)(C2)C3)n1` [Compound 450] was tested, and the DSF was “***** (>2.5° C.=*****)”.
For `Cc1cc(N2CC[C@](C)(c3ccccc3)C2)cn2nc(C34CC(CO)(CO3)C4C(=O)NCC(C)(C)C(=O)O)nc12` (stereo partly drawn) [Compound 569, 3-[[4-(hydroxymethyl)-1-[8-methyl-6-[(3R)-3-methyl-3-phenyl-pyrrolidin-1-yl]-[1,2,4]triazolo[1,5-a]pyridin-2-yl]-2-oxabicyclo[2.1.1]hexane-5-carbonyl]amino]-2,2-dimethyl-propanoic acid], the DSF was “**** (>1.5-2.5° C.=****)”.
